Data as given in US9102614B2, “Naphth-2-ylacetic acid derivatives to treat AIDS” (Gilead Sciences, Inc., priority 2010, dated 2015).
Like-named read-outs stand apart in the source and are kept apart here.

System: HIV-IIIb
Experiment: Test A: Antiviral Assays in MT4 Cells
Type: cell-based
Summary of the method: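 MT-4 cells pre-infected with HIV-IIIb (0.004 m.o.i.) at 37 °C, then plated with 3-fold serially diluted compound (10 concentrations, quadruplicate, RPMI 1640/10% FBS). After 5 days at 37 °C, cell viability read by CellTiter-Glo chemiluminescence; mock-infected cells run in parallel.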

[1] = Human immunodeficiency virus 1, IIIB, MT4, 120 h, MT-4 cells infected with HIV-IIIb (0.004 m.o.i.), 5 days of incubation, CellTiter-Glo chemiluminescence readout, read-out: EC50
[2] = MT-4 cells infected with HIV-IIIb (0.004 m.o.i.), 5 days of incubation, CellTiter-Glo chemiluminescence readout, read-out: EC50
[3] = Human immunodeficiency virus 1, IIIB, MT4, 120 h

Compound	EC50 [1]	further results
Cc1cc2ccc(C#CC(C)(C)O)cc2c(-c2ccc(Cl)cc2)c1[C@H](OC(C)(C)C)C(=O)O [Compound 99, (S)-2-tert-Butoxy-2-(1-(4-chlorophenyl)-7-(3-hydroxy-3-methylbut-1-ynyl)-3-methylnaphthalen-2-yl)acetic acid]	107 nM	–
Cc1cc2ccccc2c(C2=CCCCC2)c1[C@H](OC(C)(C)C)C(=O)O [Compound 8, (S)-2-tert-Butoxy-2-(1-cyclohexenyl-3-methylnaphthalen-2-yl)acetic acid]	25 nM	–
Cc1cc2c(Cl)cccc2c(-c2ccc3c4c(ccnc24)CCO3)c1C(OC(C)(C)C)C(=O)O [Compound 47, 2-tert-Butoxy-2-((R)-5-chloro-1-(2,3-dihydropyrano[4,3,2-de]quinolin-7-yl)-3-methylnaphthalen-2-yl)acetic acid]	–	EC50 [2]: 110 nM
Cc1cc2ccccc2c(-c2cccc(N3CCC3)c2)c1[C@H](OC(C)(C)C)C(=O)O [Compound 19, (S)-2-(1-(3-(Azetidin-1-yl)phenyl)-3-methylnaphthalen-2-yl)-2-tert-butoxyacetic acid]	–	EC50 [3]: 5400 nM
Cc1c(C(OC(C)(C)C)C(=O)O)c(-c2ccc(Cl)cc2)c2ccccc2c1-c1ccc(Cl)cc1 (stereo not shown) [Compound 140, 2-(1,4-Bis(4-chlorophenyl)-3-methylnaphthalen-2-yl)-2-tert-butoxyacetic acid]	1600 nM	–
Cc1cc2c(C#N)cc(F)cc2c(-c2ccc3c4c(ccnc24)CCO3)c1[C@H](OC(C)(C)C)C(=O)O [Compound 113A, (S)-2-tert-Butoxy-2-((R)-5-cyano-1-(2,3-dihydropyrano[4,3,2-de]quinolin-7-yl)-7-fluoro-3-methylnaphthalen-2-yl)acetic acid]	–	EC50 [2]: 910 nM
Cc1c([C@H](OC(C)(C)C)C(=O)O)c(-c2ccc3c4c(ccnc24)CCO3)c2ccccc2c1C(N)=O [Compound 183, (S)-2-tert-butoxy-2-((R)-4-carbamoyl-1-(2,3-dihydropyrano[4,3,2-de]quinolin-7-yl)-3-methylnaphthalen-2-yl)acetic acid]	351 nM	–
Cc1cc2ccc(C#CC3(O)CCOCC3)cc2c(-c2ccc(Cl)cc2)c1C(OC(C)(C)C)C(=O)O (stereo not shown) [Compound 80, 2-tert-Butoxy-2-(1-(4-chlorophenyl)-7-((4-hydroxytetrahydro-2H-pyran-4-yl)ethynyl)-3-methylnaphthalen-2-yl)acetic acid]	51 nM	–
Cc1cc2c(F)cc(F)cc2c(-c2ccc3c4c(ccnc24)CCO3)c1[C@H](OC(C)(C)C)C(=O)O [Compound 110, (S)-2-tert-Butoxy-2-((R)-1-(2,3-dihydropyrano[4,3,2-de]quinolin-7-yl)-5,7-difluoro-3-methylnaphthalen-2-yl)acetic acid]	–	EC50 [3]: 67 nM
Cc1cc2c(F)cccc2c(-c2ccc3c4c(ccnc24)CCO3)c1C(OC(C)(C)C)C(=O)O (stereo not shown) [Compound 44, 2-tert-Butoxy-2-(1-(2,3-dihydropyrano[4,3,2-de]quinolin-7-yl)-5-fluoro-3-methylnaphthalen-2-yl)acetic acid]	120 nM	–
Cc1cc2cc(-c3cncnc3)ccc2c(-c2ccc(Cl)cc2)c1[C@H](OC(C)(C)C)C(=O)O [Compound 55, (S)-2-tert-Butoxy-2-(1-(4-chlorophenyl)-3-methyl-6-(pyrimidin-5-yl)naphthalen-2-yl)acetic acid]	54 nM	–
Cc1cc2cc(C3CC3)c(F)cc2c(-c2ccc3c4c(ccnc24)CCO3)c1[C@H](OC(C)(C)C)C(=O)O [Compound 105, (S)-2-tert-Butoxy-2-((R)-6-cyclopropyl-1-(2,3-dihydropyrano[4,3,2de]quinolin-7-yl)-7-fluoro-3-methylnaphthalen-2-yl)acetic acid]	–	EC50 [2]: 43 nM
CCc1ccc2cc(C)c(C(OC(C)(C)C)C(=O)O)c(-c3ccc(Cl)cc3)c2c1 (stereo not shown) [Compound 93, 2-tert-Butoxy-2-(1-(4-chlorophenyl)-7-ethyl-3-methylnaphthalen-2-yl)acetic acid]	86 nM	–
Cc1cc2ccccc2c(-c2ccc3c4c2N(C)CCC4CCO3)c1[C@H](OC(C)(C)C)C(=O)O (stereo partly drawn) [Compound 22, (2S)-2-tert-Butoxy-2-(3-methyl-1-((7R)-6-methyl-2,3,3a,4,5,6-hexahydropyrano[4,3,2-de]quinolin-7-yl)naphthalen-2-yl)acetic acid]	540 nM	–
Cc1cc2ccccc2c(-c2ccc3c4c(ccnc24)CCO3)c1[C@H](OC(C)(C)C)C(=O)O [Compound 6D, (S)-2-tert-Butoxy-2-((R)-1-(2,3-dihydropyrano[4,3,2-de]quinolin-7-yl)-3-methylnaphthalen-2-yl)acetic acid]	–	EC50 [2]: 14 nM
Cc1cc2cc(Cl)ccc2c(-c2ccc3c4c(ccnc24)CCO3)c1[C@@H](OC(C)(C)C)C(=O)O (atropisomer, axis not shown) [Compound 177]	37000 nM	–
Cc1cc2c(Br)cccc2c(-c2ccc(Cl)cc2)c1C(OC(C)(C)C)C(=O)O (stereo not shown) [Compound 37, 2-(5-Bromo-1-(4-chlorophenyl)-3-methylnaphthalen-2-yl)-2-tert-butoxyacetic acid]	1200 nM	–

Compound	EC50 [1]	further results
CC(C)=Cc1ccc2cc(C)c(C(OC(C)(C)C)C(=O)O)c(-c3ccc(Cl)cc3)c2c1 (stereo not shown) [Compound 77, 2-tert-butoxy-2-(1-(4-chlorophenyl)-3-methyl-7-(2-methylprop-1-enyl)naphthalen-2-yl)acetic acid]	8900 nM	–
Cc1cc2ccccc2c(-c2ccc(Cl)cc2Cl)c1C(OC(C)(C)C)C(=O)O (stereo not shown) [Compound 33, tert-Butoxy-[1-(2,4-dichloro-phenyl)-3-methyl-naphthalen-2-yl]-acetic acid]	120 nM	–
CC(C)(C)O[C@H](C(=O)O)c1c(C(F)F)cc2ccccc2c1-c1ccc2c3c(ccnc13)CCO2 [Compound 32, (S)-2-tert-Butoxy-2-((R)-3-(difluoromethyl)-1-(2,3-dihydropyrano[4,3,2-de]quinolin-7-yl)naphthalen-2-yl)acetic acid]	86 nM	–
Cc1cc2cc(-c3cnccn3)ccc2c(-c2ccc(Cl)cc2)c1[C@H](OC(C)(C)C)C(=O)O [Compound 60, (S)-2-tert-Butoxy-2-(1-(4-chlorophenyl)-3-methyl-6-(pyrazin-2-yl)naphthalen-2-yl)acetic acid]	32 nM	–
Cc1c(C(OC(C)(C)C)C(=O)O)c(-c2ccc(Cl)cc2)c2ccccc2c1CCCN(C)C (stereo not shown) [Compound 132, 2-tert-Butoxy-2-(1-(4-chlorophenyl)-4-(3-(dimethylamino)propyl)-3-methylnaphthalen-2-yl)acetic acid]	118 nM	–
Cc1c(C(OC(C)(C)C)C(=O)O)c(-c2ccc(Cl)cc2)c2ccccc2c1-c1cccnc1 (stereo not shown) [Compound 138, 2-tert-butoxy-2-(1-(4-chlorophenyl)-3-methyl-4-(pyridin-3-yl)naphthalen-2-yl)acetic acid]	40 nM	–
Cc1cc2ccc(-c3ccc(Cl)cc3)cc2c(-c2ccc(Cl)cc2)c1C(OC(C)(C)C)C(=O)O (stereo not shown) [Compound 70, 2-(1,7-Bis(4-chlorophenyl)-3-methylnaphthalen-2-yl)-2-tert-butoxyacetic acid]	8800 nM	–
Cc1cc2c(C)c(C)ccc2c(-c2ccc3c4c(ccnc24)CCO3)c1[C@H](OC(C)(C)C)C(=O)O [Compound 117, (S)-2-tert-Butoxy-2-((R)-1-(2,3-dihydropyrano[4,3,2-de]quinolin-7-yl)-3,5,6-trimethylnaphthalen-2-yl)acetic acid]	–	EC50 [2]: 11 nM
Cc1cc2ccc(F)cc2c(-c2ccc3c4c(ccnc24)CCO3)c1[C@H](OC(C)(C)C)C(=O)O (atropisomer, axis not shown) [Compound 179]	18700 nM	–
Cc1cc2cc(-c3cn(C)cn3)ccc2c(-c2ccc(Cl)cc2)c1[C@H](OC(C)(C)C)C(=O)O [Compound 64, (S)-2-tert-Butoxy-2-(1-(4-chlorophenyl)-3-methyl-6-(1-methyl-1H-imidazol-4-yl)naphthalen-2-yl)acetic acid]	52 nM	–
Cc1c(C(OC(C)(C)C)C(=O)O)c(-c2ccc(Cl)cc2)c2ccccc2c1-c1ccc(N)nc1 (stereo not shown) [Compound 143, 2-(4-(6-Aminopyridin-3-yl)-1-(4-chlorophenyl)-3-methylnaphthalen-2-yl)-2-tert-butoxyacetic acid]	56 nM	–
Cc1cc2ccccc2c(-c2ccc(C(F)(F)F)c3cccnc23)c1[C@H](OC(C)(C)C)C(=O)O [Compound 7E, (S)-2-tert-butoxy-2-((S)-3-methyl-1-(5-(trifluoromethyl)quinolin-8-yl)naphthalen-2-yl)acetic acid]	–	EC50 [2]: 20000 nM
Cc1c(C(OC(C)(C)C)C(=O)O)c(-c2ccc(Cl)cc2)c2ccccc2c1-c1cnc(=O)[nH]c1 (stereo not shown) [Compound 146, 2-tert-Butoxy-2-(1-(4-chlorophenyl)-3-methyl-4-(2-oxo-1,2-dihydropyrimidin-5-yl)naphthalen-2-yl)acetic acid]	10000 nM	–
CCc1c(C)c(C(OC(C)(C)C)C(=O)O)c(-c2ccc(Cl)cc2)c2ccccc12 (stereo not shown) [Compound 129, 2-tert-Butoxy-2-(1-(4-chlorophenyl)-4-ethyl-3-methylnaphthalen-2-yl)acetic acid]	170 nM	–
Cc1cc2c(-c3ccc(Cl)cc3)cccc2c(-c2ccc(Cl)cc2)c1C(OC(C)(C)C)C(=O)O (stereo not shown) [Compound 38, 2-(1,5-Bis(4-chlorophenyl)-3-methylnaphthalen-2-yl)-2-tert-butoxyacetic acid]	3400 nM	–
Cc1cc2ccc(Cl)cc2c(-c2ccc3c4c(ccnc24)CCO3)c1C(OC(C)(C)C)C(=O)O (racemic) [Compound 124, (±)-(S)-2-tert-butoxy-2-((R)-7-chloro-1-(2,3-dihydropyrano[4,3,2-de]quinolin-7-yl)-3-methylnaphthalen-2-yl)acetic acid]	–	EC50 [2]: 150 nM
Cc1cc2ccccc2c(-c2ccc(C(F)(F)F)c3cccnc23)c1[C@H](OC(C)(C)C)C(=O)O [Compound 7D, (S)-2-tert-butoxy-2-((R)-3-methyl-1-(5-(trifluoromethyl)quinolin-8-yl)naphthalen-2-yl)acetic acid]	–	EC50 [2]: 1700 nM
